Results taken from ChEMBL document CHEMBL1137841, “Peptidyl aldehydes as slow-binding inhibitors of dual-specificity phosphatases” (Bioorg Med Chem Lett, 2004).

Key:
[1] = Tested for effect on inhibition of protein tyrosine phosphatase 1B
[2] = Tested for effect on inhibition of DSP VH1 (dual-specificity phosphatase vaccinia open reading frame H1)
[3] = biological target: T1, Dual specificity protein phosphatase 3 (Homo sapiens, UniProt P51452); experiment: Tested for effect on inhibition of Dual specificity protein phosphatase 3 at a dose of 2.5 mM
Target sequence in this assay (P51452 whole entry, looked up): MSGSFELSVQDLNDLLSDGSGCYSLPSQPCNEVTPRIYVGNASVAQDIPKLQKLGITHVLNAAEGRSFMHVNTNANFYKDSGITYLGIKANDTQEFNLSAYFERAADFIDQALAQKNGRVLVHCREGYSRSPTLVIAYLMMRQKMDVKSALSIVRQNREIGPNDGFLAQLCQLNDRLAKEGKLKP

[4] = biological target: T1, Dual specificity protein phosphatase 3; experiment: Tested for effect on inhibition of Dual specificity protein phosphatase 3 and the value reported is overall equilibrium constant
Target sequence in this assay (P51452 whole entry): as the sequence (P51452 whole entry, looked up) above

[5] = Tested for effect on inhibition of DSP VH1 (dual-specificity phosphatase vaccinia open reading frame H1) and the value reported is equilibrium constant
[6] = Tested for effect on inhibition of DSP VH1 (dual-specificity phosphatase vaccinia open reading frame H1) and the value reported is overall equilibrium constant

`O=C/C=C/c1ccc(C(=O)O)cc1` showed an IC50 [1] of 970 µM, an IC50 [2] of roughly 1000 µM and an inhibition [3] of 40%.
Work on `NC(=O)[C@H](CCC(=O)O)NC(=O)[C@H](CCC(=O)O)NC(=O)CNC(=O)c1ccc(/C=C/C=O)cc1` yielded a Ki [4] of 290 µM, a Ki [5] of 190 µM and a Ki [6] of 18 µM.
